Measurements taken from patent US7347984B2, “Mammalian agmatinase inhibitory substance” (Jackson State University, priority 2004, dated 2008).
Counter-ions that a name gives are not always drawn.

Experiments:
rat nNOS (neuronal NOS) = target: T1, rat nNOS (neuronal NOS) (Rattus norvegicus, UniProt P29476); assay: NOS activity, [3H]arginine to [3H]citrulline conversion, nNOS; format: biochemical; conditions: Conc = 1 mM
T1 construct: purchased Cayman, Ann Arbor, Mich
Protocol: (§1) NOS activity was measured by monitoring the conversion of [^3H]arginine to [^3H]citrulline (Bret et al. 1990) using three commercially available isoforms of rat NOS: nNOS (neuronal NOS) (602 units/ml, 14.9 mg/ml), iNOS (inducible NOS) (249.7 units/ml, 21.1 mg/ml), and eNOS (epithelial NOS) (30 units/ml, 14.6 mg/ml) (Cayman, Ann Arbor, Mich.). Neuronal NOS and iNOS were diluted 1:10, while eNOS was used directly without dilution. Unless otherwise indicated, each tube was incubated at 37° C. for 60 minutes. Assay buffer contained 50 mM Tris-HCl, pH7.4, 2 mM CaCl2, 1 mM NADPH, 10 mM BH4, 5 mM FAD, 5 mM FMN, and 10 mg/ml calmodulin plus radioactive precursor. After incubation, the assay reaction was halted by addition of 400 μl of buffer containing 5 mM EDTA and 50 mM HEPES. Equilibrated resin ([…], Dowex AG50WX-8 (Na^+ form) was added and the reaction mixture was transferred to spin cups and into cup holders. The mixture was passed through the Dowex AG50WX-8 resin and the filtrate collected in a spin cup. NOS activity was determined by counting the radioactivity in the flow-through (unbound) fraction. Each assay was measured in triplicate.
(§2) QSAR were studied by ab initio Hartree-Fock calculations with the Gaussian 94 computer program (Frisch et al. 1995). Based on the optimized geometry and van der Waals radius of each atom, calculations were performed with BlogP and BlogW programs (Bodor et al. 1989, 1992A, and 1992B) to determine molecular surfaces, volumes, ovalities, partition coefficients, and water solubilities. Linear combinations of these calculated descriptors were then fitted to the observed enzyme activities. The observed activities were the remaining percentage of rat agmatinase activity at 0.5 mM of each compound, the remaining percentage of rat NOS isozyme activity at 1 mM of each compound, and the remaining percentage of rat brain NMDA receptor binding at 0.1 mM of each compound.

[1] = target: T2, rat eNOS (epithelial NOS) (Rattus norvegicus, UniProt Q62600); assay: NOS activity, [3H]arginine to [3H]citrulline conversion, eNOS; format: biochemical; conditions: Conc = 1 mM
T2 construct: purchased Cayman, Ann Arbor, Mich
Protocol: as §1, §2

rat brain NMDA receptor = assay: [3H]-MK801 binding assay in rat brain membranes; conditions: Conc = 0.1 mM
Protocol: The binding of [^3H]-MK801 to NMDA (N-methyl-D-aspartate) receptors was measured in rat brain membranes as described in Renolds et al. (1990). Briefly, the membranes were incubated in HEPES buffer (pH 7.4) containing 0.4 nM [^3H]-MK801, 100 μM glutamate, and 30 μM glycine for 1 hour at 25° C. The binding was terminated by rapid filtration over glass fiber filters and radioactivity counted. Nonspecific binding was defined using 50 μM unlabelled MK801.
QSAR were studied by ab initio Hartree-Fock calculations with the Gaussian 94 computer program (Frisch et al. 1995). Based on the optimized geometry and van der Waals radius of each atom, calculations were performed with BlogP and BlogW programs (Bodor et al. 1989, 1992A, and 1992B) to determine molecular surfaces, volumes, ovalities, partition coefficients, and water solubilities. Linear combinations of these calculated descriptors were then fitted to the observed enzyme activities.

rat agmatinase = assay: Agmatinase activity assay ([14C]-agmatine hydrolysis); format: biochemical; conditions: for Agmatinase activity remaining (%): Conc = 0.5 mM; for Activity for inhibiting agmatinase, in words: among the 14 test compounds
Protocol: Agmatinase activity was measured by the method of Satishchandran and Boyle (1986) as detailed in Sastre et al. (1996). The assay is based on the hydrolysis of guanido [^14C]-agmatine to [^14C]-urea and putrescine, and subsequent trapping of [^14C]—CO2 from the labeled urea, by the addition of urease. Assays were carried out for 30 minutes at 37° C. in 300 μl of sample containing 100 mM HEPES, pH 7.8, 4 mM MgSO4, 1 mM dithiothreitol, 10 mM L-agmatine, 7 μM [^14C]-agmatine and 0.06 units of urease. Release of [^14C]—CO2 from [^14C]-urea was measured by trapping the [^14C]—CO2 in filter paper wicks saturated with benzethonium hydroxide. The reaction was stopped by injection of 40% trichloroacetic acid into the reaction chamber and the filters transferred to mini-vials containing 5 mL CYTOSCINT® cocktail (ICN Biomedicals), and counted for radioactivity by liquid scintillation spectrometry using a Beckman model LS 5801 scintillation counter.
as §2

rat iNOS (inducible NOS) = target: T3, rat iNOS (inducible NOS) (Rattus norvegicus, UniProt Q06518); assay: NOS activity, [3H]arginine to [3H]citrulline conversion, iNOS; format: biochemical; conditions: Conc = 1 mM
T3 construct: purchased Cayman, Ann Arbor, Mich
Protocol: as §1, §2

| Compound | Activity Remaining (%) nNOS (rat nNOS (neuronal NOS)) [%] | Activity Remaining (%) eNOS [1] [%] | 3H-MK801 Binding Remaining (%) (rat brain NMDA receptor) | Agmatinase activity remaining (%) (rat agmatinase) | Activity for inhibiting agmatinase, in words (rat agmatinase) | Activity Remaining (%) iNOS (rat iNOS (inducible NOS)) [%] | remaining activity at 1000 µM (rat nNOS (neuronal NOS)) [%] | remaining activity at 1000 µM [1] [%] | remaining activity at 1000 µM (rat iNOS (inducible NOS)) [%] |
| --- | --- | --- | --- | --- | --- | --- | --- | --- | --- |
| N=C(N)NCCCN [3-Aminopropylguanidine] | 6.9 | 60.8 | 93.9 | 3.1 | best activity | 5.1 |  |  |  |
| O=[N+]([O-])c1cccc2cn[nH]c12 [7-nitroindazole, reference compound] |  |  |  |  |  |  | 1 | 0 | 1 |
| C=C[C@](N)(CCCNC(=N)N)C(=O)O (racemic) [Alpha-Vinylarginine] |  |  | 99.7 | 52.0 |  |  | 4.2 | 67.4 | 7 |
| N=C(N)NN [Amino guanidine, reference compound] |  |  | 90.6 | 53 |  |  | 20 | 30 | 1 |
| Trans-4-Aminocyclohexyl guanidine | 42.5 | 69.4 |  | 97.0 | best activity | 99.6 |  |  |  |
| N=C(N)NCCCCN.O=S(=O)(O)O [Agmatine sulfate, reference compound] |  |  | 93.8 | 37 |  |  | 32.5 | 97.4 | 35.2 |
| N=CNCCCNCCCNC=N [Bis (3-(N-Iminomethyl)-aminopropyl)amine] | 23.5 | 88.7 | 99.7 | 38.0 |  | 65.2 |  |  |  |
| NC(N)=NCCCCN=C(N)N [Arcaine sulfate, reference compound] |  |  | 45.1 | 29.5 |  |  | 9.8 | 83.4 | 37.8 |
